Legend:
[1] = TLC analysis of stability after purification; format: physicochemical; conditions: 24 hours after purification, in sodium ascorbate aqueous solution (final concentration 1%)
Experimental: The crude product solution (1 μL) was analyzed by thin-layer chromatography (TLC). The sample was spotted on a thin-layer plate (silica gel 60F254), and a mixed solvent of acetonitrile/water (2/1) was used as a developing solvent. The thin-layer plate was exposed to an imaging plate (BAS IP MS 2025E, GE Healthcare) for about 15 min, and then analyzed by a bioimage analyzer (Tyhoon™ FLA-7000, Cytiva). The results are shown in FIG. 2. ^211At-AAMT-OMe in the crude product solution was detected at Rf 0.80, and the radiochemical yield (RCY) was 81.3%.
(§1) The crude product solution was injected into an HLB column (Oasis, WAT-186005125) equilibrated with sterile distilled water (1 mL) to capture the target product in the cartridge, and sterile distilled water was passed through the cartridge to elute impurities. Next, 30% ethanol solution (500 μL) was passed through the cartridge to elute the target product into sodium ascorbate aqueous solution (500 μL, final concentration 1%), thus obtaining the purified product. The radiochemical yield and radiochemical purity of the purified product were 81% and 98%, respectively.
Before purification, immediately after production, 3 hours after production, and 24 hours after production, ^211At-AAMT-OMe was analyzed by thin-layer chromatography (TLC) in the same manner as described above.
as §1, with “product. This purified product was analyzed by thin-layer chromatography (TLC) in the same manner as described above.” for “product.”, “79.6%” for “81%”, “99.9%,” for “98%,”
24 hours after production, (R)-^211At-AAMT-OMe was analyzed by thin-layer chromatography (TLC) in the same manner as described above.
as §1, with “product. This purified product was analyzed by thin-layer chromatography (TLC) in the same manner as described above.” for “product.”, “75.9%” for “81%”, “99.27%,” for “98%,”
24 hours after production, ^211At-AAMT-OEt was analyzed by thin-layer chromatography (TLC) in the same manner as described above.
The crude product solution was injected into an HLB column (Oasis, WAT-186005125) equilibrated with sterile distilled water (1 mL) to capture the target product in the cartridge, and sterile distilled water was passed through the cartridge to elute impurities. […] This purified product was analyzed by thin-layer chromatography (TLC) in the same manner as described above. […]
24 hours after production, ^211At-AAMT-OPr was analyzed by thin-layer chromatography (TLC) in the same manner as described above. […]

HEK293-hLAT1 = HEK293-hLAT1 (Homo sapiens, UniProt Q01650); assay: Cellular uptake test (Using HEK293); format: cell-based; conditions: inhibitor added 15 minutes before; BCH 20 mM or unlabeled AMT 1 μg/mL
Experimental: • Cells to be Used: HEK293-Mock, HEK293-hLAT1, HEK293-hLAT2 (HEK293: Human Embryonic Kidney cells 293) • Culture medium to be used: E-MEM (containing 10% FBS, 1% P/S, 1% NEAA)
(§2) Two days before a test day, a cell suspension was prepared in such a manner that the concentration of predetermined cells was 1×10^5 cells/mL. The cell suspension was seeded in a 24-well multiculture plate at a volume of 0.5 mL per well. On the day of the test, cultures were confirmed to be subconfluent (which refers to a state where 70-80% of the well is covered in density). The cells were washed twice with warmed PBS(-) Buffer (166-23555, FUJIFILM Wako Pure Chemical Corporation), the culture medium was replaced with HBSS(-) Buffer (085-09355, FUJIFILM Wako Pure Chemical Corporation), and the plate was left to stand in an incubator (MINIcell-35, WakenBtech Co., Ltd) until an RI addition test.
(§3) ^211At-AAMT-OMe or ^211At-AAMT was added to the prepared cells at 10 μL/well. BCH (LAT1 inhibitor, 20 mM) or unlabeled AMT (α-methyl tyrosine, 1 μg/mL) was previously (15 minutes before) added ([…]). The cells were cultured (CO2 5%, 37 °C), and after 30 minutes, the liquid was removed by suction using an aspirator. The cells were washed twice with PBS(-). The cells were lysed by adding 0.1N NaOH to obtain a lysate, and the radioactivity of the lysate was measured using a γ counter. After the radioactivity measurement, the lysate was loaded into a 96-well plate at a volume of 10 μL per well, the protein amount was measured by the BCA method, and the number of cells was corrected based on the protein amount. Absorbance was measured by MultiScanFC (Thermo Fisher). The uptake level of ^211At-AAMT-OMe or ^211At-AAMT into the cells (number of radioactivity counts/protein amount) was calculated.

[2] = system: CDDP-resistant A549 (A549 CDDP-r); assay: Cell viability of CDDP-resistant A549 (A549 CDDP-r) with CDDP; format: cell-based, human; conditions: CDDP 100 μg/mL
Experimental: Cisplatin (CDDP) was added to a human lung cancer cell line, A549 at an initial concentration of 1 μg/mL. After 3 days, dead cells were removed, and CDDP was again added. Cells that grew like A549 even in the presence of CDDP were isolated and maintained for 3 months while gradually increasing the concentration of CDDP in a culture medium.

PANC1 tumor = assay: Measurement of accumulated amounts of 211At-labeled compounds in PANC1 tumor-bearing mice; format: in vivo, human (PANC1) in Balb/c-nu/nu mice; conditions: for accumulation in the tumor sites compared to 211At-AAMT: 10 minutes and 1 hour after administration, tail vein; for retention at tumor sites: compared to 211At-AAMT
Experimental: (§4) Radiation doses before and after the administration were measured, and a difference between them was defined as an injected dose (ID). Ten minutes and one hour after administration, the mice were anesthetized by isoflurane inhalation, the tumors were isolated by autopsy in chronological order, and their radiation doses and weights were measured using a gamma counter (2480 Wizard^2, PerkinElmer) and a semimicro scale (Shimadzu Corporation, readability 10 μg), respectively. For comparison between accumulated amounts, accumulated amounts per unit amount (% ID/g) were calculated.
(§5) In Table 1, the amounts of the ^211At-labeled compounds accumulated in tumors of the PANC1 tumor-bearing models (% ID/g) are shown. It should be noted that in Table 1, “OMe” is ^211At-AAMT-OMe, “OEt” is ^211At-AAMT-OEt, “OPr” is ^211At-AAMT-OPr, and “OH” is ^211At-AAMT.

[3] = as above; format: in vivo, human (PANC1) in Balb/c-nu/nu mice; conditions: tumor, iv, 0.1 MBq/animal, 0.1 MBq/0.2 mL per mouse, tail vein, read-out: tumor accumulation; for tissue uptake at 10 min: 10 minutes after administration; for tissue uptake at 1 h: 1 hour after administration
Experimental: as §4, §5

PANC1 = assay: Cellular uptake test (Using PANC1); format: cell-based, human; conditions: for uptake speed: PANC1 cells, uptake level immediately after addition
Experimental: • Cells to be used: PANC1 • Culture medium to be used: D-MEM (containing 10% FBS, 1% P/S)
as §2, with “cells/mL in the same manner as in Test Example 1.” for “cells/mL.”
as §3, with “^211At-AAMT-OMe, ^211At-AAMT-OEt, ^211At-AAMT-OPr, or” for “^211At-AAMT-OMe or”, “of ^211At-AAMT-OMe, ^211At-AAMT-OEt, ^211-At-AAMT-OPr,” for “of ^211At-AAMT-OMe”

[4] = system: human pancreatic cancer cell line (PANC1); format: in vivo, human (PANC1) in Balb/c-nu/nu mice; conditions: 1 MBq/0.2 mL per mouse, tail vein
Text: The experiment was terminated 21 days after administration.

[5] = system: gemcitabine-resistant human pancreatic cancer cell line, PANC1 (PANC1 Gem-r); assay: Cell viability of Gemcitabine-resistant PANC1 (PANC1 Gem-r) with gemcitabine; format: cell-based; conditions: gemcitabine 30 μg/mL
Experimental: Gemcitabine (Gem) was added to a human pancreatic cancer cell line, PANC1 at an initial concentration of 100 ng/mL. After 3 days, dead cells were removed, and gemcitabine was again added. Cells that grew like a human pancreatic cancer cell line, PANC1 even in the presence of gemcitabine were isolated and maintained for 3 months while gradually increasing the concentration of gemcitabine in a culture medium.

[6] = up to 21 days after administration

Sequence of HEK293-hLAT1 (Q01650 whole entry): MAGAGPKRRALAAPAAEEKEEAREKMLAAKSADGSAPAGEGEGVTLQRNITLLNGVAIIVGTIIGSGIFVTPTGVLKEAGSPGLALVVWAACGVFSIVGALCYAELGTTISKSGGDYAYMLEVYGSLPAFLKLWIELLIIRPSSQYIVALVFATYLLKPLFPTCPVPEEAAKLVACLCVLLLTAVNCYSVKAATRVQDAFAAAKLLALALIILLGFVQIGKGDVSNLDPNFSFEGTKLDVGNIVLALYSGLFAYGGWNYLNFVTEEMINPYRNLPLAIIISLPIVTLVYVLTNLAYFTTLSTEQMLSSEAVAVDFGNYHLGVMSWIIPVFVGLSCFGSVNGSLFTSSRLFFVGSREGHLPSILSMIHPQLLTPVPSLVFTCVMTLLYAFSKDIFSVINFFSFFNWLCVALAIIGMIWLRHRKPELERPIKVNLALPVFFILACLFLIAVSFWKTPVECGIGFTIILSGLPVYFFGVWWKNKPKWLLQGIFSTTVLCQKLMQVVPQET
Sequence of HEK293-hLAT1 (P08195 102-630 partner): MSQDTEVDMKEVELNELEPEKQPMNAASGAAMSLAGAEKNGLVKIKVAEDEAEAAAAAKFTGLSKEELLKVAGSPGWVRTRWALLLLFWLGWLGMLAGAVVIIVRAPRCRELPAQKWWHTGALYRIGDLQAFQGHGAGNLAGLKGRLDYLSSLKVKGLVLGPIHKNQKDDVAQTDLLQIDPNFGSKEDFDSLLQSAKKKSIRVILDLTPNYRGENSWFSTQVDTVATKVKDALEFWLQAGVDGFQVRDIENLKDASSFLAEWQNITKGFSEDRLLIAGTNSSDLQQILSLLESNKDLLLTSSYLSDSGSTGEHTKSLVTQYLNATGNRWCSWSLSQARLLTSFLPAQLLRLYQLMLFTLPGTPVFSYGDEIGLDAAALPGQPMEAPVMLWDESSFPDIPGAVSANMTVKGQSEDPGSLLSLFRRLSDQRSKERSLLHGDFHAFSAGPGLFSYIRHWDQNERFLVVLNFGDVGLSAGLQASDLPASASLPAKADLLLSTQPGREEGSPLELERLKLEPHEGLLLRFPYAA

With `COc1ccc(C[C@@](C)(N)C(=O)O)cc1[At]` [(R)-^211At-AAMT-OMe, (R)-3-astato(^211At)—O-methyl-α-methyltyrosine] the “decomposition by TLC” value [1] was “no decomposition”.

In the case of `C[C@](N)(Cc1ccc(O)cc1)C(=O)O` [AMT, α-methyl tyrosine, reference compound], the “inhibition of uptake of 211At-AAMT-OMe into HEK293-hLAT1 cells” value (HEK293-hLAT1) was “significantly inhibited”.

In the case of `NC1(C(=O)O)CC2CCC1C2` (stereo not shown) [BCH, 2-aminobicyclo[2,2,1]heptane-2-carboxylic acid, reference compound], the “inhibition of uptake of 211At-AAMT-OMe into HEK293-hLAT1 cells” value (HEK293-hLAT1) was “significantly inhibited”.

With `[NH2][Pt]([NH2])([Cl])[Cl]` [CDDP, Cisplatin] the cell viability [2] was “still alive even at 100 μg/mL”.

With `COc1cc(C[C@](C)(N)C(=O)O)ccc1[At]` [^211At-AAMPhe-OMe, (S)-α-methyl-4-astato(^211At)-3-methoxyphenylalanine] the “decomposition by TLC” value [1] was “no decomposition”, the “accumulation in the tumor sites compared to 211At-AAMT” value (“accumulation … compared to 211At-AAMT” for short) (PANC1 tumor) was “more highly accumulated in the tumor sites than ^211At-AAMT” and the tissue uptake at 10 min [3] was 3.77 %ID/g. The tissue uptake at 1 h [3] was 6.38 %ID/g.

With `CCOc1ccc(C[C@](C)(N)C(=O)O)cc1[At]` [^211At-AAMT-OEt, (S)-3-astato(^211At)—O-ethyl-α-methyltyrosine] the “uptake level into cells (number of radioactivity counts/protein amount)” value (PANC1) was “comparable or superior”, the uptake speed (PANC1) was “comparable or superior” and the “decomposition by TLC” value [1] was “no decomposition”. For the same compound, the apparent toxicity ([4]; 21 days) was “apparent toxicity induced by their administration was not observed”, the “lesions other than tumor at autopsy” value ([4]; 21 days) was “lesions other than tumor were not observed” and the mouse body weight [4, 6] was “gently increased”. For the same compound, the “tumor growth inhibiting effect” value [4, 6] was “comparable to that of the ^211At-AAMT-OMe administration group”, the “accumulation … compared to 211At-AAMT” value (PANC1 tumor) was “more highly accumulated in the tumor sites than ^211At-AAMT” and the “retention at tumor sites” value (PANC1 tumor) was “superior retention at tumor sites compared to ^211At-AAMT”. The tissue uptake at 10 min [3] was 4.21 %ID/g and the tissue uptake at 1 h [3] was 3.59 %ID/g.

In the case of `CCCOc1ccc(C[C@](C)(N)C(=O)O)cc1[At]` [^211At-AAMT-OPr, (S)-3-astato(^211At)—O-propyl-α-methyltyrosine], the “uptake level into cells (number of radioactivity counts/protein amount)” value (PANC1) was “comparable or superior”, the uptake speed (PANC1) was “comparable or superior” and the “decomposition by TLC” value [1] was “no decomposition”. For the same compound, the “accumulation … compared to 211At-AAMT” value (PANC1 tumor) was “more highly accumulated in the tumor sites than ^211At-AAMT”, the “tumor accumulation, ranking” value (PANC1 tumor; 1 hour after administration) was “most highly accumulated 1 hour after administration” and the “retention at tumor sites” value (PANC1 tumor) was “superior retention at tumor sites compared to ^211At-AAMT”. It also gave a tissue uptake at 10 min [3] of 5.91 %ID/g and a tissue uptake at 1 h [3] of 9.45 %ID/g.

In the case of `Nc1ccn([C@@H]2O[C@H](CO)[C@@H](O)C2(F)F)c(=O)n1` [gemcitabine, Gemcitabine], the cell viability [5] was “still alive even at 30 μg/mL”.

— patent publication US20260337125A1, “RADIOLABELED TYROSINE DERIVATIVE AND APPLICATION THEREOF” (Osaka University, priority 2022, published 2026)
